Data as given in patent US20250214968A1, “Novel Salt of GLP-1 Receptor Agonist Compound, Preparation Method Thereof and Pharmaceutical Composition Comprising Thereof” (Ildong Pharmaceutical Co., Ltd., priority 2022, published 2025).
In brackets after ≈: the same amount, converted by molar mass. Where a name gives a salt, the structure may show the parent alone.

What was measured:
Format in all cases: physicochemical
[1] = Thermogravimetric (TGA) analysis; conditions: TGA 20° C. to 350° C., 10° C./min, nitrogen
Method: Thermogravimetric (TGA) analysis was performed on the tromethamine salt prepared in Example 3, the free base prepared in Comparative Example 1, the L-arginine salt prepared in Comparative Example 2, the meglumine salt prepared in Comparative Example 3, and the potassium salt prepared in Comparative Example 4. Thermogravimetric analysis was performed from 20° C. to 350° C. at a heating rate of 10° C./min under nitrogen conditions using TGA Q50 manufactured by TA Instruments, Inc. The weight loss at about 170° C. or less for each salt was measured, and results thereof are shown in FIG. 2 (tromethamine salt), FIG. 3 (free base), FIG. 6 (L-arginine salt), FIG. 9 (meglumine salt), and 12 (potassium salt), and summarized in Table 4 below.

[2] = Hygroscopicity test by DVS, 25° C. and 90% RH; conditions: moisture sorption
Method: Samples in amounts of about 5 to 25 mg were tested for moisture sorption/desorption profiles at 25° C. under a 0% to 90% relative humidity (RH) cycle according to the pa-rameters in Table 2 below using DVS Intrinsic 1 manufactured by Surface Measurement System Ltd.
Hygroscopicity was measured for the tromethamine salt prepared in Example 3, the L-arginine salt prepared in Comparative Example 2, the meglumine salt prepared in Comparative Example 3, and the potassium salt prepared in Comparative Example 4. Results thereof are shown in FIGS. 14 to 17, respectively, and the results of the weight percent gain according to moisture sorption are shown in Table 6 below.

[3] = Hygroscopicity test, European Pharmacopoeia conditions, 25° C. and 80% RH; conditions: stored 24 hours at 25° C., 80% RH (EP conditions)
Method: Under the hygroscopicity test conditions of the European Pharmacopoeia (EP), the tromethamine salt prepared in Example 3 and the free base prepared in Comparative Example 1 were stored for 24 hours at a temperature of 25° C. and a relative humidity of 80%, and then the mass change of the sample due to moisture sorption was measured.

[4] = Solubility in water and bio-relevant media; conditions: for Final pH: after 24 hours stirring; for solubility at 24 h: thermodynamic from solid, room temperature, 2 mg/mL loading
Method: Solubility in water and bio-relevant media, i.e., stimulated gastric fluid (SGF), fasted state simulated intestinal fluid (FaSSIF), and fed state simulated intestinal fluid (FeSSIF) of the free base and the tromethamine salt of (S)-2-((4-(6-((5-cyanopyridin-2-yl)methoxy)pyridin-2-yl)piperazin-1-yl)methyl)-1-(oxetan-2-ylmethyl)-1H-benzo[d]imidazol-6-carboxylic acid was confirmed.
Buffers for the bio-relevant media were prepared as follows.
Water: Laboratory Milli-Q purified water.
SGF (Stimulated Gastric Fluid): 2.0 g of sodium chloride and 7 mL of hydrochloric acid dissolved in 1000 mL of water was used.
FaSSIF (Fasted State Simulated Intestinal Fluid): A commercial product purchased from Bio-Relevant Company and manufactured according to instructions was used.
FeSSIF (Fed State Simulated Intestinal Fluid): A commercial product purchased from Bio-Relevant Company and prepared according to instructions was used.
For the experiment, about 2 mg of compound (2 mg as free base form) was weighed into each glass vial and then 1 mL of medium was added (final concentration of 2 mg/mL). Then, the sample was continuously stirred for 24 hours in a magnetic stirrer at a speed of […] at room temperature. Then, the pH was measured and the mixture was filtered using MultiScreen®HTS-HV 96-well plate (Merck; 0.45 μm hydrophilic low protein binding Durapore® membrane). Solubility was analyzed using HPLC.

[5] = Drug stability evaluation under stress condition (80° C., open)
Method: The free base and the tromethamine salt of (S)-2-((4-(6-((5-cyanopyridin-2-yl)methoxy)pyridin-2-yl)piperazin-1-yl)methyl)-1-(oxetan-2-ylmethyl)-1H-benzo[d]imidazol-6-carboxylic acid were weighed into each vial and stored under stress conditions to investigate stability.
The stress conditions are as follows: • high temperature open room condition: 80° C.;
Samples were analyzed by XRPD and HPLC at the onset (Day 0) and week 1 of storage.

[6] = XRPD analysis of crystal form under various relative humidity conditions; conditions: 20° C.
Method: The X-ray powder diffraction (XRPD) pattern was measured using DYY884-AERIS-300 manufactured by PANalytical company, and analyzed with a step size of about 0.02° over the range of about 2° to 45° in the […].
The XRPD analysis of the crystalline form 1 of the tromethamine salt of (S)-2-((4-(6-((5-cyanopyridin-2-yl)methoxy)pyridin-2-yl)piperazin-1-yl)methyl)-1-(oxetan-2-ylmethyl)-1H-benzo[d]imidazol-6-carboxylic acid was performed under the conditions of varying relative humidity from 15% RH to 90% RH at 20° C., and the changes in the crystalline form according to the relative humidity were confirmed.

[7] = simulated gastric fluid, SGF (pH 2.0)
[8] = 80° C. (Week 1), high temperature open

| SMILES | Weight loss (%) at about 170° C. or less [1] [%] | Weight percent gain (%) [2] [%] | Weight percent gain (%) [3] [%] | Final pH ([4]; FaSSIF (pH 6.5)) | Final pH ([4]; FeSSIF (pH 5.8)) | Final pH ([4]; SGF (pH 2.0)) | Final pH ([4]; Water) | solubility at 24 h [4, 7] [µg/mL] | solubility at 24 h ([4]; FaSSIF (pH 6.5)) [µg/mL] | solubility at 24 h ([4]; FeSSIF (pH 5.8)) [µg/mL] | solubility at 24 h ([4]; Water) [µg/mL] | Chemical stability by HPLC purity % [5, 8] [%] | Chemical stability by HPLC purity % ([5]; Onset (Day 0)) [%] | also measured |
| --- | --- | --- | --- | --- | --- | --- | --- | --- | --- | --- | --- | --- | --- | --- |
| N#Cc1ccc(COc2cccc(N3CCN(Cc4nc5ccc(C(=O)O)cc5n4C[C@@H]4CCO4)CC3)n2)nc1 [Example 3, tromethamine salt of (S)-2-((4-(6-((5-cyanopyridin-2-yl)methoxy)pyridin-2-yl)piperazin-1-yl)methyl)-1-(oxetan-2-ylmethyl)-1H-benzo[d]imidazol-6-carboxylic acid] | 0.1207 | 1.44 | 0.22 | 6.50 | 5.85 | 1.90 | 7.21 | 710 | > 2000 | 336 | > 2000 | 97.32 | 97.99 | Weight percent gain (%) ([2]; listed as tromethamine salt): about 1.44%; change in the XRPD pattern ([5]; harsh conditions, 80° C., week 1): did not show any change in the XRPD pattern; purity change rate ([5]; harsh conditions, 80° C., week 1 vs day 0): less than 1%; Crystalline Form ([6]; 15% RH, during desorption): Form 1; Crystalline Form ([6]; 15% RH, increasing humidity): 1; Crystalline Form ([6]; 20% RH, increasing humidity): 1; Crystalline Form ([6]; 25% RH, increasing humidity): 1; Crystalline Form ([6]; 30% RH, during desorption): Form 1; Crystalline Form ([6]; 30% RH, increasing humidity): 1; Crystalline Form ([6]; 35% RH, increasing humidity): 1; Crystalline Form ([6]; 40% RH, during desorption): Form 1; Crystalline Form ([6]; 40% RH, increasing humidity): 1; Crystalline Form ([6]; 45% RH, increasing humidity): 1; Crystalline Form ([6]; 50% RH, during desorption): intermediate; Crystalline Form ([6]; 50% RH, increasing humidity): 1; Crystalline Form ([6]; 55% RH, increasing humidity): 1A; Crystalline Form ([6]; 60% RH, increasing humidity): 1A |
| CNC[C@H](O)[C@@H](O)[C@H](O)[C@H](O)CO.N#Cc1ccc(COc2cccc(N3CCN(Cc4nc5ccc(C(=O)O)cc5n4C[C@@H]4CCO4)CC3)n2)nc1 [Comparative Example 3, meglumine salt of (S)-2-((4-(6-((5-cyanopyridin-2-yl)methoxy)pyridin-2-yl)piperazin-1-yl)methyl)-1-(oxetan-2-ylmethyl)-1H-benzo[d]imidazol-6-carboxylic acid] | 2.8132 | 17.77 |  |  |  |  |  |  |  |  |  |  |  |  |
| N#Cc1ccc(COc2cccc(N3CCN(Cc4nc5ccc(C(=O)O)cc5n4C[C@@H]4CCO4)CC3)n2)nc1.N=C(N)NCCC[C@H](N)C(=O)O [Comparative Example 2, L-arginine salt of (S)-2-((4-(6-((5-cyanopyridin-2-yl)methoxy)pyridin-2-yl)piperazin-1-yl)methyl)-1-(oxetan-2-ylmethyl)-1H-benzo[d]imidazol-6-carboxylic acid] | 7.368 | 6.84 |  |  |  |  |  |  |  |  |  |  |  |  |

Second part, led by results:

| Weight loss (%) at about 170° C. or less [1] [%] | Weight percent gain (%) [2] [%] | Weight percent gain (%) [3] [%] | Final pH ([4]; FaSSIF (pH 6.5)) | Final pH ([4]; FeSSIF (pH 5.8)) | Final pH ([4]; SGF (pH 2.0)) | Final pH ([4]; Water) | solubility at 24 h [4, 7] [µg/mL] | solubility at 24 h ([4]; FaSSIF (pH 6.5)) [µg/mL] | solubility at 24 h ([4]; FeSSIF (pH 5.8)) [µg/mL] | solubility at 24 h ([4]; Water) [µg/mL] | Chemical stability by HPLC purity % [5, 8] [%] | Chemical stability by HPLC purity % ([5]; Onset (Day 0)) [%] | SMILES | also measured |
| --- | --- | --- | --- | --- | --- | --- | --- | --- | --- | --- | --- | --- | --- | --- |
| 4.284 | 5.97 |  |  |  |  |  |  |  |  |  |  |  | N#Cc1ccc(COc2cccc(N3CCN(Cc4nc5ccc(C(=O)[O-])cc5n4C[C@@H]4CCO4)CC3)n2)nc1.[K+] [Comparative Example 4, potassium salt of (S)-2-((4-(6-((5-cyanopyridin-2-yl)methoxy)pyridin-2-yl)piperazin-1-yl)methyl)-1-(oxetan-2-ylmethyl)-1H-benzo[d]imidazol-6-carboxylic acid] |  |
| 3.323 |  | 2.7 | 6.49 | 5.70 | 1.74 | 6.64 | 850 (≈ 1580 µM) | 160 (≈ 297 µM) | 63 (≈ 117 µM) | 106 (≈ 196 µM) | 96.70 | 97.84 | N#Cc1ccc(COc2cccc(N3CCN(Cc4nc5ccc(C(=O)O)cc5n4C[C@@H]4CCO4)CC3)n2)nc1 [Comparative Example 1, (S)-2-((4-(6-((5-cyanopyridin-2-yl)methoxy)pyridin-2-yl)piperazin-1-yl)methyl)-1-(oxetan-2-ylmethyl)-1H-benzo[d]imidazol-6-carboxylic acid] |  |
